# Measurements taken from US7244614B2, “Fusion proteins and assays for molecular binding” (Cellomics, Inc., priority 2001, dated 2007).
# Experiments:
# Format in all cases: cell-based
# [1] = tested on: c-Jun N-terminal kinase (JNK); experiment: c-Jun N-terminal protein kinase fusion protein redistribution in transfected HeLa cells, ArrayScan II; conditions: for change in localization of the fusion protein to the cytoplasm upon activation: serum starved 24 h, anisomycin 500 nM, sorbitol 300 mM, TNF 100 ng/ml or staurosporine 1 uM, 1 hour
# Source text: It is constructed such that the detection domain is a GFP, the first localization domain is a modified SV40 T antigen NLS, the second localization domain is an NES from MAPKAP2, and the binding domain is the JNK binding domain from c-jun. […] This example illustrates the detection and monitoring of a binding event induced to occur within the cell.
# As shown below, this fusion protein was constructed using GFP, a modified nuclear localization signal from SV40 T antigen, the sequence from Proline 315 to Serine 362 of MAPKAP2 (Genbank accession number X76850), which includes a nuclear export signal (between D^328 to E^351, SEQ ID NO:317), and the sequence from P^30 to L^60 of c-Jun,(accession number J04111), which serves as the JNK binding domain.
# Protocol: HeLa cells were transiently transfected with the fusion protein. Cells were serum starved for 24 hours prior to treatment. Cells were exposed to test compounds known to induce cell stress, including anisomycin (500 nM), sorbitol (300 mM), TNF (tumor necrosis factor, 100 ng/ml), or staurosporine (1 uM), for 1 hour. For inhibitor treatment, cells were pretreated for 2 hours with 10 uM inhibitor then treated with anisomycin, in parallel with non-inhibitor-treated cells. Cells were then treated with 3.7% formaldehyde & Hoechst 33342 for 20 minutes to fix and stain the nuclei, and then washed. Data was collected on ArrayScan II® (Cellomics, Inc. Pittsburgh, Pa.).
# MAPK [2] = experiment: MAPK binding fusion protein (first variant, mutated n-myc NLS) redistribution in transfected HeLa cells, ArrayScan II; conditions: for inhibition of the change in distribution of the fusion protein: 2 hours pretreatment with 10 uM inhibitor, then PMA; for change in localization of the fusion protein to the cytoplasm upon activation: serum starved 24 h, PMA 1.5 nM or sorbitol 200 mM, 1 hour
# Source text: In this example, a fusion protein for detecting the availability for specific binding of MAPK, the protein of interest, is based on the distribution of the fusion protein between the cytoplasm and nucleus. It is constructed such that the detection domain is a GFP, the first localization sequence is a mutated NLS from n-myc, the second localization sequence is an NES from MAPKAP2, and the binding domain is the MAPK binding domain from RSK-1. The NLS and MAPK binding domain are separated by 2 amino acids. Operationally, the binding of MAPK to the binding domain blocks the localization of this fusion protein into the nucleus. […] Contacting the cell with a compound that activates MAPK, such as PMA or serum, will activate MAPK by inducing a dissociation of MAPK from MEK1, thus making MAPK available for binding to the RSK-1 binding domain in the fusion protein, and will shift the distribution of the fusion protein from the nucleus to the cytoplasm.
# As shown below, this fusion protein was constructed using a GFP, a mutated nuclear localization signal from n-myc, based on human n-myc (Genbank accession number Y00664), the sequence from Proline 315 to Alanine 361 of MAPKAP2 (Genbank accession number X76850), which includes a nuclear export signal (between D^328 to E^351, SEQ ID NO:317), and the MAPK binding domain from RSK1 spanning from S^718 to T^733 (Genbank accession number L07597).
# (§1) Protocol: HeLa cells were transiently transfected with the fusion protein. Cells were serum starved for 24 hours prior to treatment. Cells were then exposed to PMA (1.5 nM) or sorbitol (200 mM) for 1 hour. For inhibitor treatment, cells were pretreated for 2 hours with 10 uM inhibitor, and then treated with PMA, in parallel with non-inhibitor-treated cells. Cells were then treated with 3.7% formaldehyde & Hoechst 33342 for 20 minutes to fix and stain the nuclei, and then washed. Data was collected on ArrayScan II® (Cellomics, Inc. Pittsburgh, Pa.). […] Most, if not all, of the fusion protein was affected. The change in distribution was inhibitable by pretreatment of 10 uM PD98059, a specific inhibitor of MAPK activation, but not by SB203580, a specific inhibitor of p38 MAPK activation. Second Variant Protocol: HeLa cells were transiently transfected with the fusion protein. Cells were serum starved for 24 hours prior to treatment. Cells were exposed to serum (20%) or PMA (200 nM) for 2 hours. Cells were then treated with 3.7% formaldehyde & Hoechst 33342 for 20 minutes to fix and stain the nuclei, and then washed. Data was collected on ArrayScan II® (Cellomics, Inc. Pittsburgh, Pa.).
# [3] = tested on: catalytic domain of cAMP-dependent protein kinase (cPKA); experiment: cAMP-dependent protein kinase interaction fusion protein redistribution (nucleus/cytoplasm) in transfected HeLa cells, ArrayScan II; conditions: serum starved 24 h, forskolin 2 h or PMA 1 h
# Source text: In this example, a fusion protein for detecting the availability for specific binding of the catalytic domain of cAMP-dependent protein kinase (cPKA), the protein of interest, is based on the distribution of the fusion protein between the cytoplasm and nucleus. It is constructed such that the detection domain is a GFP, the first localization domain is the NLS from SV40 large T-antigen, the second localization domain is the NES from MAPKAP2, and the binding domain is from CREB. The NLS and the binding domain are separated by 2 amino acids. The fusion protein is introduced into cells via DNA transfection or retrovirus infection. The catalytic domain cPKA binds to the regulatory domain of PKA (rPKA) in the absence of cAMP. With an increase in the concentration of cAMP, cPKA dissociates from rPKA, enabling cPKA to bind to the fusion protein. Operationally, the binding of cPKA to the binding domain blocks the localization of this fusion protein into the nucleus. […] The ratio of these intensities can be readily measured. This fusion protein can detect cPKA binding in either the nucleus or cytoplasm. Contacting the cell with a compound that causes a separation of cPKA from rPKA, such as forskolin, via an increase cAMP, will shift the distribution of the fusion protein from the nucleus to the cytoplasm. […]
# MAPK [4] = experiment: MAPK binding fusion protein (second variant, SV40 NLS) redistribution in transfected HeLa cells, ArrayScan II; conditions: serum starved 24 h, serum 20% or PMA 200 nM, 2 hours
# Protocol: A variant of this MAPK binding fusion protein was also prepared. This fusion protein was constructed using a GFP, a nuclear localization signal from the SV 40 large T antigen (SEQ ID NO:145, Genbank accession number J02400), specifically P^126 to V^132, the sequence from Glutamic Acid 327 to Isoleucine 353 of MAPKAP2 (Genbank accession number X76850), which includes a nuclear export signal (between D^328 to E^351, SEQ ID NO:317), and the MAPK binding domain from RSK1, spanning from S^718 to T^733 (Genbank accession number L07597).
# as §1, with “Second Variant Protocol: HeLa cells were transiently transfected with the fusion protein. Cells were serum starved for 24 hours prior to treatment. Cells were exposed to serum (20%) or PMA (200 nM) for 2 hours. Cells were then treated with 3.7% formaldehyde & Hoechst 33342 for 20 minutes to fix and stain the nuclei, and then washed. Data was collected on ArrayScan II® (Cellomics, Inc. Pittsburgh, Pa.).” left out
Compound,change in localization of the fusion protein to the cytoplasm upon activation [1],inhibition of the change in distribution of the fusion protein (MAPK [2]),change in localization of the fusion protein to the cytoplasm upon activation (MAPK [2]),other results
CN[C@@H]1C[C@H]2O[C@@](C)([C@@H]1OC)n1c3ccccc3c3c4c(c5c6ccccc6n2c5c31)C(=O)NC4 [staurosporine],led to a change in localization of the fusion protein to the cytoplasm,,,
COc1cccc(-c2cc(=O)c3ccccc3o2)c1N [PD98059],,inhibitable,,
COc1ccc(C[C@H]2NC[C@H](O)[C@H]2OC(C)=O)cc1 [anisomycin],led to a change in localization of the fusion protein to the cytoplasm,,,
OC[C@@H](O)[C@@H](O)[C@H](O)[C@@H](O)CO [sorbitol],,,did not induce a change in the localization of the fusion protein,
"CCCCCCCCCCCCCC(=O)O[C@@H]1[C@@H](C)[C@@]2(O)[C@@H](C=C(CO)C[C@]3(O)C(=O)C(C)=C[C@@H]23)[C@@H]2C(C)(C)[C@]12OC(C)=O [PMA, Phorbol-12-Myristate-13-Acetate]",,,led to a change in localization of the fusion protein to the cytoplasm,change in localization of the fusion protein to the cytoplasm upon activation [3]: led to a change in localization of the fusion protein to the cytoplasm; change in localization of the fusion protein to the cytoplasm upon activation (MAPK [4]): led to a change in localization of the fusion protein to the cytoplasm
C[S+]([O-])c1ccc(-c2nc(-c3ccncc3)c(-c3ccc(F)cc3)[nH]2)cc1 (stereo not drawn) [SB203580],,not,,"effect of inhibitor pretreatment on the change in distribution of the fusion protein ([1]; 2 hours pretreatment with 10 uM inhibitor, then anisomycin): not affected"
